Data as given in patent US20240384268A1, “Oligonucleotides” (Hudson Institute of Medical Research, priority 2021, published 2024).
In the oligonucleotide strings, read from the 5' end, every base follows the letter of its sugar. An asterisk marks phosphorothioate; unmarked linkages are phosphodiester. Other units and linkages are bracketed, terminal groups are in braces. A string of capitals states the bases alone. d = 2'-deoxy (DNA); m = 2'-O-methyl

Tests used:
human TLR7 = target: T1, human TLR7 (Homo sapiens, UniProt Q9NYK1); assay: HEK-TLR7 NF-κB-luciferase reporter, R848 stimulation; format: cell-based; conditions: for TLR7-100 nM: averaged NF-κB-Luciferase relative to R848: 100 nM ASO, percentage of R848 without ASO (Alharbi et al., 2020)
T1 construct: HA; host or cells: 293XL-hTLR7-HA (HEK293)
T1 sequence (Q9NYK1 27-1049): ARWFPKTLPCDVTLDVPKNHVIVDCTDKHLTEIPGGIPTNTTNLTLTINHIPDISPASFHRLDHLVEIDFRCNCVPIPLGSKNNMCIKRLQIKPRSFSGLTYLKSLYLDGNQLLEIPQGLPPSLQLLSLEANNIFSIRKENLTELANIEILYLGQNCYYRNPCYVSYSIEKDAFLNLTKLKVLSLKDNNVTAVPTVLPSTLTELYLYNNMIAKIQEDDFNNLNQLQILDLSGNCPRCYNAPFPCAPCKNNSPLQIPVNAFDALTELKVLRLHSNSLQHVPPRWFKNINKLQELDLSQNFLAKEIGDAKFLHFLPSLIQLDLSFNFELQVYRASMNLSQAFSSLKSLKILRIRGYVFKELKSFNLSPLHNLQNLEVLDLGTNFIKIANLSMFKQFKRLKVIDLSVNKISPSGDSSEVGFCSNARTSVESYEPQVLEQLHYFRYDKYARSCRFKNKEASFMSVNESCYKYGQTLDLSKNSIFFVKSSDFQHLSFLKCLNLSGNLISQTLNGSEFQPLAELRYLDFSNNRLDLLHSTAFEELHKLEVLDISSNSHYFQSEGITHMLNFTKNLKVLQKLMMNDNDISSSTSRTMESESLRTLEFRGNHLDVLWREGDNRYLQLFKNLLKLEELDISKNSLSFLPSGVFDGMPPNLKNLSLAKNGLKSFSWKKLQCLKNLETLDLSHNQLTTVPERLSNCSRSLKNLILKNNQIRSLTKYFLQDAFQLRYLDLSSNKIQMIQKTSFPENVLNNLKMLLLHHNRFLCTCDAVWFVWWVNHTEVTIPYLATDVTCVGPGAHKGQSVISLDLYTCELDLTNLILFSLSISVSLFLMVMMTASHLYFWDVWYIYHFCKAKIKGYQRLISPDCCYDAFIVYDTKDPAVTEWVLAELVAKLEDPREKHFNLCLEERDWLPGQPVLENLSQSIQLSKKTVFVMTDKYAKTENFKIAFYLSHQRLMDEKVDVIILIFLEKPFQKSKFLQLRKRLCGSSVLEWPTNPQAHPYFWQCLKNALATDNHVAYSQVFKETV

cGAS = cGAS (Homo sapiens, UniProt Q8N884); assay: ISD70-driven IP-10 production in MG-63 cells; format: cell-based; design: endogenous in cells; conditions: indicated concentrations up to 500 nM, ~30 min, ISD overnight (FIG. 24)
Chain of cGAS (Q8N884 whole entry): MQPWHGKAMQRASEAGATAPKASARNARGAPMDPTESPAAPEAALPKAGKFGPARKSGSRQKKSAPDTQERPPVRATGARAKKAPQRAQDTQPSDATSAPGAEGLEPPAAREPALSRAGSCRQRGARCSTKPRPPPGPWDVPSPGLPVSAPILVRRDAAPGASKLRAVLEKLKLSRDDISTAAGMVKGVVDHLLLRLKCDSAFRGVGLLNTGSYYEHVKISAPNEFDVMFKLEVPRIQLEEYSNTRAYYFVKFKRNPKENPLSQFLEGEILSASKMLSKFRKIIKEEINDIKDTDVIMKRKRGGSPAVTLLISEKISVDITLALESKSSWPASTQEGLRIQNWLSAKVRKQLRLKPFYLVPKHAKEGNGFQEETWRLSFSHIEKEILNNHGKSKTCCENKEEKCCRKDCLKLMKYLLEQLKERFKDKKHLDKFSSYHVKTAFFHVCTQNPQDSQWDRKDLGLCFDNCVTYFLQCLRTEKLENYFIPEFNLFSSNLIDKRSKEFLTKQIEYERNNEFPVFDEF

Row | Substance | TLR7-100 nM: averaged NF-κB-Luciferase relative to R848 (human TLR7; HEK-TLR7) | also measured
1 | CGCTTTTCTGTCTGGT (antisense; LNA-modified, pattern not given here) [CTNN2B-311 LNA KL] | – | TLR7 100 nM (averaged NF-κB-Luciferase level relative to R848 condition) (human TLR7; ASO 100 nM, relative to R848 only, given as fraction): 0.393; TLR7 500 nM (averaged NF-κB-Luciferase level relative to R848 condition) (human TLR7; ASO 500 nM, relative to R848 only, given as fraction): 0.142; IP-10 after ISD in MG-63, MOE and LNA ASOs (in words) (cGAS): did not inhibit IP-10 production
2 | mA*mG*mU*mG*mG*C*A*C*A*T*A*C*C*A*C*mA*mC*mC*mC*mU (AGUGGCACATACCACACCCU; antisense; sugars from the 5' end m5 d10 m5, all phosphorothioate, methylation of C not given here) [[CDKN2B-AS1]495] | 41.95% | –
3 | mA*mU*mU*mU*mC*C*A*C*A*T*G*C*C*C*A*mG*mU*mG*mU*mU (AUUUCCACATGCCCAGUGUU; antisense; sugars from the 5' end m5 d10 m5, all phosphorothioate, methylation of C not given here) [[CDKN2B-AS1]626] | 32.05% | –
4 | mC*mA*mG*mU*mC*T*C*C*A*T*G*T*C*C*C*mA*mG*mG*mC*mC (mC*mA*mG*mU*mC*dT*dC*dC*dA*dT*dG*dT*dC*dC*dC*mA*mG*mG*mC*mC; antisense) [[CDKN2B-AS1]2233] | 47.75% | –
5 | mC*mA*mG*mU*mG*T*T*T*T*T*A*A*T*T*T*mU*mG*mU*mA*mG (mC*mA*mG*mU*mG*dT*dT*dT*dT*dT*dA*dA*dT*dT*dT*mU*mG*mU*mA*mG; antisense) [[CDKN2B-AS1]613] | 62.68% | –
6 | mC*mU*mU*mG*mU*G*A*A*A*A*G*A*T*T*A*mU*mC*mU*mU*mC (mC*mU*mU*mG*mU*dG*dA*dA*dA*dA*dG*dA*dT*dT*dA*mU*mC*mU*mU*mC) [[CDKN2B-AS1]2139] | 85.33% | inhibition of R848 sensing by TLR7, short pre-treatment (in words) (human TLR7; HEK-TLR7, 100-500 nM oligo 20-50 min before R848 1 μg/ml): did not inhibit TLR7
7 | mG*mC*mA*mG*mU*C*T*C*C*A*T*G*T*C*C*mC*mA*mG*mG*mC (GCAGUCTCCATGTCCCAGGC; antisense; sugars from the 5' end m5 d10 m5, all phosphorothioate, methylation of C not given here) [[CDKN2B-AS1]2234] | 20.30% | –
8 | mG*mU*mC*mU*mC*C*A*T*G*T*C*C*C*A*G*mG*mC*mC*mU*mC (mG*mU*mC*mU*mC*dC*dA*dT*dG*dT*dC*dC*dC*dA*dG*mG*mC*mC*mU*mC) [[CDKN2B;AS1]2231] | 23.75% | –
9 | mG*mU*mG*mU*mC*C*T*T*C*A*T*G*C*T*T*mU*mG*mG*mA*mU (GUGUCCTTCATGCTTUGGAU; antisense; sugars from the 5' end m5 d10 m5, all phosphorothioate, methylation of C not given here) [[CDKN2B-AS1]1415] | 18.05% | –
10 | mG*mU*mG*mU*mU*T*T*T*A*A*T*T*T*T*G*mU*mA*mG*mA*mG (mG*mU*mG*mU*mU*dT*dT*dT*dA*dA*dT*dT*dT*dT*dG*mU*mA*mG*mA*mG) [[CDKN2B-AS1]611] | 23.63% | –
11 | mU*mA*mU*mU*mU*C*C*A*C*A*T*G*C*C*C*mA*mG*mU*mG*mU (mU*mA*mU*mU*mU*dC*dC*dA*dC*dA*dT*dG*dC*dC*dC*mA*mG*mU*mG*mU; antisense) [[CDKN2B-AS1]627] | 30.54% | –
